Source: patent US20230278972A1, “SUBSTITUTED HALOALKYL SULFONANILIDE HERBICIDES” (FMC Corporation, priority 2020, published 2023)

What was measured:
Type in all cases: in vivo
[1] = system: Ryegrass, Italian (Italian ryegrass, Lolium multiflorum); experiment: Test A postemergence, Ryegrass, Italian; details: Postemergence, 0 to 100 scale (0 no effect, 100 complete control); for Ryegrass, Italian plant response rating: visual injury vs untreated controls after approx. 10 days
Method in brief: (§1)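 Preemergence: seeded pots of loam plus sand received a directed soil spray. Postemergence: seedlings at one to two leaves, 2 to 10 cm high, were oversprayed. Each compound was formulated in a non-phytotoxic solvent mix that included a surfactant.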

[2] = system: barnyardgrass (Echinochloa crus-galli); experiment: Test A postemergence, barnyardgrass; details: Postemergence, 0 to 100 scale (0 no effect, 100 complete control); for Barnyardgrass plant response rating: visual injury vs untreated controls after approx. 10 days
Method in brief: (§2)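 Postemergence ratings come from foliar sprays onto one- to two-leaf plants of 2 to 10 cm grown in loam/sand; preemergence ratings come from a directed spray onto the soil of newly seeded pots. Formulation was a surfactant-containing non-phytotoxic solvent blend.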

[3] = system: wheat (Triticum aestivum); experiment: Test A postemergence, wheat; details: Postemergence, 0 to 100 scale (0 no effect, 100 complete control); for Wheat plant response rating: visual injury vs untreated controls after approx. 10 days
Method in brief: as §2

[4] = system: Ryegrass, Italian (Italian ryegrass, Lolium multiflorum); experiment: Test A preemergence, Ryegrass, Italian; details: Preemergence; for Ryegrass, Italian plant response rating: 125 g ai/ha, visual injury on 0 to 100 scale (0 no effect, 100 complete control), approximately 10 days; for Plant response rating, Ryegrass, Italian: 500 g ai/ha, 0 to 100 scale (0 no effect, 100 complete control)
Method in brief: as §1

[5] = system: Foxtail, Giant (giant foxtail, Setaria faberi); experiment: Test A preemergence, Foxtail, Giant; details: Preemergence; for Foxtail, Giant plant response rating: 125 g ai/ha, visual injury on 0 to 100 scale (0 no effect, 100 complete control), approximately 10 days; for Plant response rating, Foxtail, Giant: 500 g ai/ha, 0 to 100 scale (0 no effect, 100 complete control)
Method in brief: as §1

corn (Zea mays) = experiment: Test A postemergence, corn; details: Postemergence, 0 to 100 scale (0 no effect, 100 complete control); for Corn plant response rating: visual injury vs untreated controls after approx. 10 days
Method in brief: as §1

[6] = system: pigweed (Amaranthus retroflexus); experiment: Test A postemergence, pigweed; details: Postemergence, 0 to 100 scale (0 no effect, 100 complete control); for Pigweed plant response rating: visual injury vs untreated controls after approx. 10 days
Method in brief: as §1

[7] = system: ragweed (common ragweed, Ambrosia artemisiifolia); experiment: Test A preemergence, ragweed; details: Preemergence; for Ragweed plant response rating: 125 g ai/ha, visual injury on 0 to 100 scale (0 no effect, 100 complete control), approximately 10 days; for Plant response rating, Ragweed: 500 g ai/ha, 0 to 100 scale (0 no effect, 100 complete control)
Method in brief: as §1

[8] = system: blackgrass (Alopecurus myosuroides); experiment: Test A postemergence, blackgrass; details: Postemergence, 0 to 100 scale (0 no effect, 100 complete control); for Blackgrass plant response rating: visual injury vs untreated controls after approx. 10 days
Method in brief: as §1

kochia (Bassia scoparia) [9] = experiment: Test A postemergence, kochia; details: Postemergence, 0 to 100 scale (0 no effect, 100 complete control); for Kochia plant response rating: visual injury vs untreated controls after approx. 10 days
Method in brief: as §1

[10] = system: Foxtail, Giant (giant foxtail, Setaria faberi); experiment: Test A postemergence, Foxtail, Giant; details: Postemergence, 0 to 100 scale (0 no effect, 100 complete control); for Foxtail, Giant plant response rating: visual injury vs untreated controls after approx. 10 days
Method in brief: as §1

[11] = system: galium (catchweed bedstraw, Galium aparine); experiment: Test A postemergence, galium; details: Postemergence, 0 to 100 scale (0 no effect, 100 complete control); for Galium plant response rating: visual injury vs untreated controls after approx. 10 days
Method in brief: as §2

[12] = system: ragweed (common ragweed, Ambrosia artemisiifolia); experiment: Test A postemergence, ragweed; details: Postemergence, 0 to 100 scale (0 no effect, 100 complete control); for Ragweed plant response rating: visual injury vs untreated controls after approx. 10 days
Method in brief: as §1

[13] = system: pigweed (Amaranthus retroflexus); experiment: Test A preemergence, pigweed; details: for Pigweed plant response rating: 125 g ai/ha, visual injury on 0 to 100 scale (0 no effect, 100 complete control), approximately 10 days; for Plant response rating, Pigweed: 500 g ai/ha, 0 to 100 scale (0 no effect, 100 complete control)
Method in brief: as §2

[14] = system: barnyardgrass (Echinochloa crus-galli); experiment: Test A preemergence, barnyardgrass; details: Preemergence; for Barnyardgrass plant response rating: 125 g ai/ha, visual injury on 0 to 100 scale (0 no effect, 100 complete control), approximately 10 days; for Plant response rating, Barnyardgrass: 500 g ai/ha, 0 to 100 scale (0 no effect, 100 complete control)
Method in brief: as §1

kochia (Bassia scoparia) [15] = experiment: Test A preemergence, kochia; details: Preemergence; for Kochia plant response rating: 125 g ai/ha, visual injury on 0 to 100 scale (0 no effect, 100 complete control), approximately 10 days; for Plant response rating, Kochia: 500 g ai/ha, 0 to 100 scale (0 no effect, 100 complete control)
Method in brief: as §1

[16] = 125 g ai/ha, visual injury approx. 10 days
[17] = 500 g ai/ha, visual injury, approx. 10 days

Cc1ccc(-c2ccnn(C)c2=O)cc1NS(=O)(=O)C(F)(F)F [Compound 59]
Plant response rating, Ryegrass, Italian [1, 16]: 0 | Ryegrass, Italian plant response rating ([1]; 500 g ai/ha): 60 | Plant response rating, Barnyardgrass [2, 16]: 0 | Barnyardgrass plant response rating ([2]; 500 g ai/ha): 80 | Plant response rating, Wheat [3, 16]: 0 | Wheat plant response rating ([3]; 500 g ai/ha): 40 | Ryegrass, Italian plant response rating [4]: 0 | Plant response rating, Ryegrass, Italian [4]: 60 | Foxtail, Giant plant response rating [5]: 20 | Plant response rating, Foxtail, Giant [5]: 70 | Plant response rating, Corn (corn (Zea mays); [16]): 10 | Corn plant response rating (corn (Zea mays); 500 g ai/ha): 40 | Plant response rating, Pigweed [6, 16]: 0 | Pigweed plant response rating ([6]; 500 g ai/ha): 60 | Ragweed plant response rating [7]: 0 | Plant response rating, Ragweed [7]: 30 | Plant response rating, Blackgrass [8, 16]: 0 | Blackgrass plant response rating ([8]; 500 g ai/ha): 70 | Plant response rating, Kochia (kochia (Bassia scoparia) [9]; [16]): 50 | Kochia plant response rating (kochia (Bassia scoparia) [9]; 500 g ai/ha): 70 | Plant response rating, Foxtail, Giant [10, 16]: 10 | Foxtail, Giant plant response rating ([10]; 500 g ai/ha): 70 | Plant response rating, Galium [11, 16]: 80 | Galium plant response rating ([11]; 500 g ai/ha): 90 | Plant response rating, Ragweed [12, 16]: 20 | Ragweed plant response rating ([12]; 500 g ai/ha): 60 | Pigweed plant response rating [13]: 30 | Plant response rating, Pigweed [13]: 60 | Barnyardgrass plant response rating [14]: 0 | Plant response rating, Barnyardgrass [14]: 90 | Kochia plant response rating (kochia (Bassia scoparia) [15]): 40 | Plant response rating, Kochia (kochia (Bassia scoparia) [15]): 90

Cc1cc(C)c(C2=NOC3(CCC4(CC3)OCCO4)C2)cc1NS(=O)(=O)C(F)(F)F [Compound 135]
Plant response rating, Ryegrass, Italian ([1]; 125 g ai/ha): 0 | Ryegrass, Italian plant response rating ([1]; 500 g ai/ha): 80 | Plant response rating, Barnyardgrass [2, 16]: 80 | Barnyardgrass plant response rating ([2]; 500 g ai/ha): 90 | Plant response rating, Wheat ([3]; 125 g ai/ha): 0 | Wheat plant response rating ([3]; 500 g ai/ha): 70 | Ryegrass, Italian plant response rating [4]: 100 | Plant response rating, Ryegrass, Italian [4]: 100 | Foxtail, Giant plant response rating [5]: 100 | Plant response rating, Foxtail, Giant [5]: 100 | Plant response rating, Corn (corn (Zea mays); [16]): 0 | Corn plant response rating (corn (Zea mays); 500 g ai/ha): 80 | Plant response rating, Pigweed ([6]; 125 g ai/ha): 80 | Pigweed plant response rating ([6]; 500 g ai/ha): 70 | Ragweed plant response rating [7]: 10 | Plant response rating, Ragweed [7]: 80 | Plant response rating, Blackgrass [8, 16]: 20 | Blackgrass plant response rating ([8]; 500 g ai/ha): 60 | Plant response rating, Kochia (kochia (Bassia scoparia) [9]; [16]): 50 | Kochia plant response rating (kochia (Bassia scoparia) [9]; 500 g ai/ha): 70 | Plant response rating, Foxtail, Giant [10, 16]: 90 | Foxtail, Giant plant response rating ([10]; 500 g ai/ha): 90 | Plant response rating, Galium [11, 16]: 90 | Galium plant response rating ([11]; 500 g ai/ha): 90 | Plant response rating, Ragweed ([12]; 125 g ai/ha): 20 | Ragweed plant response rating ([12]; 500 g ai/ha): 80 | Pigweed plant response rating [13]: 60 | Plant response rating, Pigweed [13]: 100 | Barnyardgrass plant response rating [14]: 100 | Plant response rating, Barnyardgrass [14]: 100 | Kochia plant response rating (kochia (Bassia scoparia) [15]): 80 | Plant response rating, Kochia (kochia (Bassia scoparia) [15]): 100

Cc1cc(C)c(N(S(=O)(=O)C(F)(F)F)S(=O)(=O)C(F)(F)F)cc1C1=NOC(C(C)(C)C)C1 (centres unmarked) [Compound 127]
Plant response rating, Ryegrass, Italian [1, 16]: 40 | Ryegrass, Italian plant response rating ([1]; 500 g ai/ha): 50 | Plant response rating, Barnyardgrass [2, 16]: 0 | Barnyardgrass plant response rating ([2]; 500 g ai/ha): 70 | Plant response rating, Wheat [3, 16]: 0 | Wheat plant response rating ([3]; 500 g ai/ha): 0 | Ryegrass, Italian plant response rating [4]: 60 | Plant response rating, Ryegrass, Italian [4]: 80 | Foxtail, Giant plant response rating [5]: 20 | Plant response rating, Foxtail, Giant [5]: 90 | Plant response rating, Corn (corn (Zea mays); [16]): 0 | Corn plant response rating (corn (Zea mays); 500 g ai/ha): 20 | Plant response rating, Pigweed [6, 16]: 0 | Pigweed plant response rating ([6]; 500 g ai/ha): 40 | Ragweed plant response rating [7]: 0 | Plant response rating, Ragweed [7]: 60 | Plant response rating, Blackgrass [8, 16]: 20 | Blackgrass plant response rating ([8]; 500 g ai/ha): 20 | Plant response rating, Kochia (kochia (Bassia scoparia) [9]; [16]): 10 | Kochia plant response rating (kochia (Bassia scoparia) [9]; 500 g ai/ha): 40 | Plant response rating, Foxtail, Giant [10, 16]: 0 | Foxtail, Giant plant response rating ([10]; 500 g ai/ha): 0 | Plant response rating, Galium [11, 16]: 20 | Galium plant response rating ([11]; 500 g ai/ha): 90 | Plant response rating, Ragweed [12, 16]: 20 | Ragweed plant response rating ([12]; 500 g ai/ha): 50 | Pigweed plant response rating [13]: 20 | Plant response rating, Pigweed [13]: 40 | Barnyardgrass plant response rating [14]: 50 | Plant response rating, Barnyardgrass [14]: 90 | Kochia plant response rating (kochia (Bassia scoparia) [15]): 80 | Plant response rating, Kochia (kochia (Bassia scoparia) [15]): 80

Cc1cc(C)c(C(=O)N2CC(C)OC(C)C2)cc1NS(=O)(=O)C(F)(F)F (centres unmarked) [Compound 9]
Plant response rating, Ryegrass, Italian [1, 16]: 70 | Plant response rating, Ryegrass, Italian [1, 17]: 80 | Plant response rating, Barnyardgrass [2, 16]: 80 | Plant response rating, Barnyardgrass [2, 17]: 90 | Plant response rating, Wheat [3, 16]: 60 | Plant response rating, Wheat [3, 17]: 70 | Ryegrass, Italian plant response rating [4]: 90 | Plant response rating, Ryegrass, Italian [4]: 100 | Foxtail, Giant plant response rating [5]: 80 | Plant response rating, Foxtail, Giant [5]: 100 | Plant response rating, Corn (corn (Zea mays); [16]): 0 | Plant response rating, Corn (corn (Zea mays); [17]): 70 | Plant response rating, Pigweed [6, 16]: 60 | Plant response rating, Pigweed [6, 17]: 80 | Ragweed plant response rating [7]: 90 | Plant response rating, Ragweed [7]: 90 | Plant response rating, Blackgrass [8, 16]: 30 | Plant response rating, Blackgrass [8, 17]: 30 | Plant response rating, Kochia (kochia (Bassia scoparia) [9]; [16]): 10 | Plant response rating, Kochia (kochia (Bassia scoparia) [9]; [17]): 30 | Plant response rating, Foxtail, Giant [10, 16]: 20 | Plant response rating, Foxtail, Giant [10, 17]: 90 | Plant response rating, Galium [11, 16]: 80 | Plant response rating, Galium [11, 17]: 90 | Plant response rating, Ragweed [12, 16]: 70 | Plant response rating, Ragweed [12, 17]: 80 | Pigweed plant response rating [13]: 30 | Plant response rating, Pigweed [13]: 80 | Barnyardgrass plant response rating [14]: 100 | Plant response rating, Barnyardgrass [14]: 100 | Kochia plant response rating (kochia (Bassia scoparia) [15]): 70 | Plant response rating, Kochia (kochia (Bassia scoparia) [15]): 90
